# Reference: patent publication US8420852B2, “Phospholipase A2 inhibitors and their use in treating neurological injury and disease” (The Regents of the University of California, priority 2007, dated 2013)
# What was measured:
# [1] = system: chemokine and cytokine protein expression in spinal cord; test: mouse inflammation antibody array of spinal cords of EAE mice; assay type: in vivo; conditions: treatment from day 5, tissue day 18
# Protocol: Spinal cords were removed from vehicle and inhibitor treated animals when the vehicle-treated mice reached the peak of disease (score of 4). The tissues were then homogenized in lysis buffer and centrifuged at 1000×g. These protein samples were then assessed using the Raybio® inflammatory antibody array from RayBiotech Inc (Norcross, Ga.). Briefly, blocking buffer was added to glass-chip slides, which are coated with antibodies against chemokine, cytokine and related proteins. The slides were then incubated with the various protein samples from the treatment and control groups. After washing the glass slides, they were incubated sequentially with a biotin conjugated secondary antibody solution, horseradish peroxidase (HRP)-conjugated strepavidin, and HRP detection buffer. The signals were then visualized by chemiluminescence. Densitometric analysis was performed to detect differences between the various samples using ImageQuant 5.1 software (Molecular Dynamics). Positive control signals were used to normalize the level of expression from different glass slides being compared. Experiments were repeated with 3 different samples (n=3), and all the detection and analysis was done blind.
# The results of this group of experiments are shown with the reference to FIGS. 15 and 16. FIG. 15 provides graphs showing the level of protein expression of chemokines in spinal cords of naive mice and EAE mice treated with PLA2 inhibitors starting on day 5. Tissues were taken on day 18, when the vehicle treated animals reached the peak of the first clinical attack. The data are shown for inhibitors AX059 (FIG. 15a) and AX115 (FIG. 15b). Data represent means±SEM from 3 animals in each group. In the figures, * represents a significant decrease, while ** represents a significant increase as compared to vehicle treated EAE controls.
# FIG. 16 provides graphs showing the level of protein expression of cytokines in spinal cords of naive mice and EAE treated mice treated with PLA2 inhibitors starting on day 5. Tissues were taken on day 18, when the vehicle treated animals reached the peak of the first clinical attack. The data are shown for inhibitors AX059 (FIG. 16a) and AX115 (FIG. 16b). Data represent means±SEM from 3 animals in each group. In the figures, * represents a significant decrease, while ** represents a significant increase as compared to vehicle treated EAE controls.
# Changes were assessed in protein expression of 40 chemokines and cytokines, their receptors and related molecules, using a mouse antibody array (RayBiotech Inc.). The analysis was carried out on spinal cords from mice treated with inhibitors starting from day 5 post-immunization. Tissue was taken on day 18 when the control vehicle-treated mice reached the peak of the first clinical attack. 12 chemokines were increased in vehicle-treated mice (FIG. 15), most of which are known to play a role in EAE, except for LIX (CXCL5) and TECK (CCL25), whose functions in CNS autoimmune disease remain unclear. […] In contrast, the pan-inhibitor AX115, which inhibits sPLA2 greater than AX059 reduced the expression of 7 of the 12 chemokines (FIG. 15b). Importantly, it increased the expression of eotaxin-2 (1.8-fold), RANTES (9.6-fold) and MIP-1 γ (9.7-fold) […], which can also regulate the allergic arm of the immune response.
# [2] = system: fatty acids attached to phospholipid classes in spinal cord; test: lipid profiling of spinal cords of EAE mice (fatty acid hydrolysis); assay type: in vivo, mouse; conditions: for Treatment: mean ± SD, n=3; for % Difference: treated EAE vs naive
# Protocol: Spinal cords were removed from vehicle and inhibitor treated animals at the peak stage of disease when the vehicle-treated mice reached the clinical score of 4, and the tissue snap frozen in liquid nitrogen. Lipid profiling was carried out by Lipomics Technology Inc. (West Sacramento, Calif.). The tissues were then extracted for either TrueMass® lipid profiling, or an eicosanoid inflammatory panel analysis. The lipids from the tissues were extracted in the presence of authentic internal standards as previously described (55), using chloroform:methanol (2:1 v/v). Individual lipid classes within each extract were separated by liquid chromatography (Agilent Technologies model 1100 Series). Each lipid class was trans-esterified in 1% sulfuric acid in methanol in a sealed vial under a nitrogen atmosphere at 100° C. for 45 min. The resulting fatty acid methyl esters were extracted from the mixture with hexane containing 0.05% butylated hydroxytoluene and prepared for gas chromatography by sealing the hexane extracts under nitrogen. Fatty acid methyl esters were separated and quantified by capillary gas chromatography (Agilent Technologies model 6890) equipped with a 30 m DB-88MS capillary column (Agilent Technologies) and a flame-ionization detector. Lipomic Surveyor® software was used to visualize changes within the treated groups. Experiments were repeated with 3 different samples (n=3), and all the detection and analysis was done blind.
# As PLA2s hydrolyze fatty acids from the sn-2 position of phospholipids, a comprehensive profiling was carried out of 40 fatty acids (FAs) that are attached to 5 phospholipid classes in extracts of spinal cords of naive mice, EAE mice treated with vehicle, and PLA2 inhibitor-treated EAE mice. […] These tissues were taken from the same groups of mice used for the chemokine/cytokine assay described above.
smiles,measurement,setting,value
CCCCCCCCCCCCCCC(=O)C(=O)NCC(=O)OC [AX115],number of chemokines reduced,[1]; of the 12 chemokines increased in vehicle-treated EAE mice,7
same,number of cytokines reduced,[1]; of the 13 cytokines increased in vehicle-treated EAE mice,9
same,increase in expression of IL-10,[1]; spinal cord,failed to increase IL-10
same,increase in expression of MIP-1 γ,[1]; spinal cord,9.7 fold
same,increase in expression of RANTES,[1]; spinal cord,9.6 fold
same,increase in expression of eotaxin-2,[1]; spinal cord,1.8 fold
same,increase in soluble TNF receptor 1 (sTNFR1),[1]; spinal cord,~4 fold
same,Treatment,"[2]; Cardiolipin - arachidic, naive 464.0 ± 69.4",324.4 ± 27.5 nmol
same,% Difference,[2]; Cardiolipin - arachidic,30.1%
same,Treatment,"[2]; Cardiolipin - eicosapentaenoic, naive 16.1 ± 4.8",3.2 ± 5.5 nmol
same,% Difference,[2]; Cardiolipin - eicosapentaenoic,80.3%
same,Treatment,"[2]; Phosphatidylcholine - arachidic, naive 347.9 ± 20.1",269.4 ± 24.9 nmol
same,% Difference,[2]; Phosphatidylcholine - arachidic,22.5%
same,Treatment,"[2]; Phosphatidylcholine - eicosenoic, naive 1666.2 ± 46.4",1393.4 ± 52.5 nmol
same,% Difference,[2]; Phosphatidylcholine - eicosenoic,16.4%
same,% Difference,[2]; Phosphatidylcholine - erucic,22.4%
same,Treatment,"[2]; Phosphatidylserine - tetracosahexanoic, naive 9.7 ± 0.8",6.4 ± 0.6 nmol
same,% Difference,[2]; Phosphatidylserine - tetracosahexanoic,33.8%
same,Treatment,"[2]; Phosphatidylserine-1-enyl-octadecenoic, naive 217.4 ± 37.9",133.3 ± 32.5 nmol
same,% Difference,[2]; Phosphatidylserine-1-enyl-octadecenoic,38.7%
